Results from patent publication US4933369A, “Dimethyl tyrosyl amide sulfides, sulfoxides and sulfones” (G. D. Searle & Co., priority 1988, dated 1990).

Experiments:
[1] = target: opiate receptors isolated from rat brain; test: Opiate binding assay (displacement of 3H-Naloxone); conditions: 3H-Naloxone 1NM, rat brain membranes, pH 7.4, 25° C., 60 min
Method: (§1) The test compounds were evaluated for their ability to displace the binding of ^3 H-Naloxone to opiate receptors isolated from rat brain. Male rats (Crl:CD)(SD)(BR) obtained from Charles River Laboratories (Portage, Mich.) were sacrificed by cervical dislocation. A purified homogenate of receptor membranes was prepared from the brains according to the method described by Chang and Cuatrecasas. Multiple Opiate Receptors: Enkephalins and Morphine Bind to Receptors of Different Specificity. J. Biol. Chem. 254, 2610-2618 (1979). The brains were homogenized in ten volumes of 0.32 M sucrose and centrifuged twice at 6,000×g for fifteen minutes. Following centrifugation of the supernatants at 40,000×g for thirty minutes, the pellets were resuspended in 5 mM tris HCl, and centrifuged at 6,000×g. The supernatant was centrifuged at 40,000×g. The resuspension in 5 mM tris and centrifugation was repeated twice. The final pellet was resuspended in two volumes of 50 mM tris HCl, (pH 7.4). The homogenate was assayed for protein content according to the method of Itzhaki and Gill (R. E. Itzhaki and D. N. Gill. A Micro-Biuret Method for Estimating proteins Anal. Biochem. 9, 401-410, 1964).
The binding of the test compounds to the receptor membrane preparation was measured using a modification of the method of Pert and Snyder (C. B. Pert and S. H. Snyder. Property of Opiate-Receptor Binding in Rat Brain. Proc. Natl. Acad. Sci. 70, 2243-2247, 1973). The receptor assay was run using a final concentration of 1NM^3 H-Naloxone and 0.5 mg/ml of homogenate protein. Levorphanol (1×10^-5 M) was used as the displacer for non-specific binding. The final concentration of the test compounds was 10^-5 M) The assay was run in 0.05 M tris HCl (pH 7.4). Total assayed volume was 1.0 ml.
(§2) Samples were incubated at 25° C. for sixty minutes, filtered over Whatman GF/C glass fiber filters and rinsed twice with 2.4 ml washes of ice-cold buffer. The filters were air dried at 50° C. for thirty minutes. After drying, 10 ml of PCS was added to the vial and radioactivity determined using a Tracore Analytic Mark III liquid scintillation counter with a counting efficiency of 48%.
The IC50 values, the concentration of the test compounds which inhibited ^3 H-Naloxone specific binding to the opiate receptor by 50%, were obtained from log-logit plots of concentration-response curves.

mouse = test: Writhing assay (phenylbenzoquinone-induced writhing, analgesia); type: in vivo, Male Charles River albino mice (CD-1/HAM/lLR); set-up: key: +: The test compound was rated active if the number of writhes in the drug treatment group was significantly less than the number of writhes in the saline treatment group as determined by a one-way analysis of variance; conditions: 30 min before phenylbenzoquinone, initial test dose 2 mg/kg
Method: Male Charles River albino mice (CD-1/HAM/lLR) weighing between 20 and 30 grams were used. Thirty minutes after subcutaneous or intragastric administration of the test compound (0.1 ml/10 gm body weight), 0.025% (w/x) phenylbenzoquinone was injected intraperitoneally (0.1 ml/10 gm body weight). Five minutes later, each mouse was placed in a large glass beaker and the number of writhes that occurred in the subsequent ten minutes is counted. A writhe consisted of dorsoflexion of the back, extension of the hind limbs and strong contraction of the abdominal musculature. The test compound was considered to have produced analgesia in a mouse if the number of writhes elicited by phenylbenzoguinone was equal to or less than 1/2 the median number of writhes recorded for the saline-treated group that day. The results were expressed as the number of mice (out of a possible 10) in which the test compound produced analgesia. […] If the initial test dose of 2 mg/kg inhibited writhing in greater than six out of ten mice, the effect of additional doses was evaluated and an ED50 value was calculated using a maximum likelihood function.

[2] = target: T1, opiate receptors isolated from rat brain (Rattus norvegicus, UniProt P33535); test: Opiate binding assay with (D)Ala^2Glyol^5 Enkephlin as radioactive ligand
T1 construct: A purified homogenate of receptor membranes was prepared from the brains; from tissue; host or cells: brain membranes of male Crl:CD(SD)BR rats (animals from Charles River Laboratories)
T1 sequence (P33535 whole entry): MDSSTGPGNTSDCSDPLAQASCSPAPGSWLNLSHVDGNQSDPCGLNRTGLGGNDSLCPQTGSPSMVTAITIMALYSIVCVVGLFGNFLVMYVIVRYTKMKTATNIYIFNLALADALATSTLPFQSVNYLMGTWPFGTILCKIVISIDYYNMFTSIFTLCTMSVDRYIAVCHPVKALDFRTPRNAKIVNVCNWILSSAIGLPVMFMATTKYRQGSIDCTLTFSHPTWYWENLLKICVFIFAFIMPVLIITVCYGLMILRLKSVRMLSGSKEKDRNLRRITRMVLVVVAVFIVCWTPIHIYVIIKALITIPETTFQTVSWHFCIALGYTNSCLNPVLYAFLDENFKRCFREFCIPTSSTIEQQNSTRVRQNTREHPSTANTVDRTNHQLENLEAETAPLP
Method: as §1, with “Male” for “The test compounds were evaluated for their ability to displace the binding of ^3 H-Naloxone to opiate receptors isolated from rat brain. Male”, “The final pellet was resuspended in two volumes of 50 mM tris HCl, (pH 7.4). The homogenate was assayed for protein content according to the method of Itzhaki and Gill (R. E. Itzhaki and D. N. Gill. A Micro-Biuret Method for Estimating proteins Anal. Biochem. 9, 401-410, 1964).” left out
The binding of the test compounds to the receptor membrane preparation was measured using a modification of the method of Pert and Snyder (C. B. Pert and S. H. Snyder. Property of Opiate-Receptor Binding in Rat Brain. Proc. Natl. Acad. Sci. 70, 2243-2247, 1973). […]
as §2, with “The filters were air dried at 50° C. for thirty minutes.” left out, “48%. […]” for “48%.”

| Structure (SMILES) | IC50 [1] | ACTIVE (writhing assay, subcutaneous dosing) (mouse) | IC50 [2] |
| --- | --- | --- | --- |
| Cc1cc(O)cc(C)c1CC(N)C(=O)NCCSCCCc1ccccc1 (racemic) [Example 2, (±)α-amino-4-hydroxy-2,6-dimethyl-N-[2-[(3-phenylpropyl)thio]ethyl]benzenepropanamide] | 2.2 nM |  |  |
| Cc1cc(O)cc(C)c1CC(N)C(=O)NCCS(=O)(=O)CCCc1ccccc1 (racemic) [Example 3, (±)α-amino-4-hydroxy-2,6-dimethyl-N-[2-[(3-phenylpropyl)sulfonyl]ethyl]benzenepropanamide] | 0.8 nM | + |  |
| Cc1cc(O)cc(C)c1CC(N)C(=O)NCC[S+]([O-])CCCc1ccccc1 (racemic) [Example 4, (±)α-amino-4-hydroxy-2,6-dimethyl-N-[2-[(3-phenylpropyl)sulfinyl]ethyl]benzenepropanamide] | 2.8 nM | + |  |
| Cc1cc(O)cc(C)c1CC(N)C(=O)NCCCSCCc1ccccc1 (racemic) [Example 5, (±) α-2,6-dimethyl-N-[3-[(2-phenylethyl)thio]propyl]benzenepropanamide] |  | + | 3.6 nM |
| Cc1cc(O)cc(C)c1CC(N)C(=O)NCCCS(=O)(=O)CCc1ccccc1 (racemic) [Example 6, (±)α-amino-4-hydroxy-2,6-dimethyl-N-[3-[(2-phenylethyl)sulfonyl]-propyl]benzenepropanamide] | 0.9 nM |  |  |
| Cc1cc(O)cc(C)c1CC(N)C(=O)NCCCSCc1ccccc1 (racemic) [Example 7, (±)α-amino-4-hydroxy-2,6-dimethyl-N-[3-[(phenylmethyl)thio]propyl]benzenepropanamide] | 21 nM | + |  |
| Cc1cc(O)cc(C)c1CC(N)C(=O)NCCCCSCc1ccccc1 (racemic) [Example 8, (±)α-amino-4-hydroxy-2,6-dimethyl-N-[4-(phenylmethyl)thio]butyl]benzenepropanamide] |  | + |  |
| Cc1cc(O)cc(C)c1C[C@H](N)C(=O)NCCCSc1ccccc1 [Example 9, (L)α-amino-4-hydroxy-2,6-dimethyl-N-[3-(phenylthio)propyl]benzenepropanamide] |  |  | 20.9 nM |
